Measured values from publication PMC9622310 (Biomolecules & Therapeutics, 2022).
Several values for one entry are separate records, joined by “and”; a condition that tells them apart may be missing. Identical values can stand only once. Like-named read-outs stand apart in the source and are kept apart here. Values belong to the compound of their own block, whether it stands above or below them.

Key:
[1] = ref Bergan et al., 1981; cited from earlier work
[2] = hepatic microsomes
4% human serum albumin = conditions: 1 to 100 μg/mL; ref Kim et al., 2020; cited from earlier work
[3] = oxidation and N-demethylation; ref Dowty et al., 2014; cited from earlier work
[4] = oral 20 mg/kg; for GI24 h: remaining in gastrointestinal tract at 24 h, 20 mg/kg; for Ae0-24 h: unchanged in urine for 24 h
P-gp = conditions: ref Hussar, 2014; cited from earlier work
in vitro = conditions: rat, intestinal microsomes, pH 7.4, CLint
[5] = assay type: in vivo, rat; conditions: for Ae0-24 h: unchanged in urine for 24 h; for clearance: CL; for CL renal: CLR; for Vd: Vss
[6] = Rat plasma protein binding of tofacitinib by equilibrium dialysis; assay type: in vitro ADME; conditions: pH 7.4
[7] = intestinal microsomes
[8] = oral 20 mg/kg, male Sprague-Dawley rats; ref Lee and Kim, 2019; cited from earlier work
[9] = Tissue distribution of tofacitinib 30 min after intravenous administration; assay type: in vivo, rat; conditions: 30 min after intravenous 10 mg/kg
in vivo = conditions: rat, plasma, po, 20 mg/kg; for CL renal: CLR
CYP2C11 = assay: Immunoblot analysis of CYP2C11 in hepatic and intestinal microsomes of DSS rats; parameters: species or system rat
CYP3A1/2 = assay: Immunoblot analysis of CYP3A1/2 in hepatic and intestinal microsomes of DSS rats; parameters: species or system rat
rats = assay: Induction of ulcerative colitis by 5% DSS in drinking water; assay type: in vivo, rat
[10] = rat, plasma, iv, 10 mg/kg, intravenous 10 mg/kg, CON rats
[11] = rat, plasma, iv, 10 mg/kg, intravenous 10 mg/kg, DSS rats

Compound: Cc1ncc([N+](=O)[O-])n1CCO [metronidazole]
- Increase of plasma concentration in patients with ulcerative colitis [1]: 50%

- Decrease of CLint in DSS rats compared with CON rats [2]: 75.5%
- Km, DSS versus CON rats [2]: comparable
- Decrease of CLR in DSS rats compared with CON rats [4]: 64.0%
- Increase of AUC in DSS rats compared with CON rats [4]: 85.5%
- Ae0-24 h ([4]; CON rats): 4.13 ± 2.71 % of dose
- Ae0-24 h ([4]; DSS rats): 2.40 ± 1.26 % of dose
- microsomal CLint (in vitro; CON rats): 5.81 µL/min/mg
- microsomal CLint (in vitro; DSS rats): 3.54 µL/min/mg
- Decrease of CL in DSS rats compared with CON rats ([5]; intravenous 10 mg/kg): 47.7%
- Decrease of CLNR in DSS rats compared with CON rats ([5]; intravenous 10 mg/kg): 45.3%
- Decrease of CLR in DSS rats compared with CON rats ([5]; intravenous 10 mg/kg): 77.6%
- Decrease of Vss in DSS rats compared with CON rats ([5]; intravenous 10 mg/kg): 43.2%
- Increase of AUC in DSS rats compared with CON rats ([5]; intravenous 10 mg/kg): 92.3%
- CLNR ([5]; intravenous 10 mg/kg, CON rats): 34.0 ± 5.54 mL/min/kg
- Ae0-24 h ([5]; intravenous 10 mg/kg, CON rats): 3.97 ± 2.93 % of dose
- CLNR ([5]; intravenous 10 mg/kg, DSS rats): 18.6 ± 1.65 mL/min/kg
- Ae0-24 h ([5]; intravenous 10 mg/kg, DSS rats): 2.73 ± 1.89 % of dose
- CLR′ (CLR recalculated from free fraction in plasma) ([5]; intravenous, CON rats): 5.07 mL/min/kg
- Contribution of CLR to CL ([5]; intravenous, CON rats): 8.27%
- CLR′ (CLR recalculated from free fraction in plasma) ([5]; intravenous, DSS rats): 1.10 mL/min/kg
- Contribution of CLR to CL ([5]; intravenous, DSS rats): 3.55%
- half-life ([5]; rat, plasma, iv, 10 mg/kg): 31 ± 5.36 min
- AUC ([5]; rat, plasma, iv, 10 mg/kg, intravenous 10 mg/kg, CON rats (n=7)): 4520 ng·h/mL
- AUC ([5]; rat, plasma, iv, 10 mg/kg, intravenous 10 mg/kg, DSS rats (n=6)): 8680 ng·h/mL
- clearance [5, 10]: 37.1 ± 5.68 mL/min/kg
- clearance [5, 11]: 19.4 ± 2.26 mL/min/kg
- CL renal [5, 10]: 3.07 ± 1.4 mL/min/kg
- CL renal [5, 11]: 0.688 ± 0.149 mL/min/kg
- MRT [5, 10]: 20.3 min
- MRT [5, 11]: 31.9 min
- Vd [5, 10]: 0.767 ± 0.286 L/kg
- Vd [5, 11]: 0.436 ± 0.164 L/kg
- fraction unbound at 24 h, 10 μg/mL ([6]; fresh plasma from CON and DSS rats): 0.606 to 0.626
- fraction unbound at 24 h, 10 μg/mL ([6]; fresh plasma from CON rats): 0.606
- fraction unbound at 24 h, 10 μg/mL ([6]; fresh plasma from DSS rats): 0.626
- Km, DSS versus CON rats [7]: comparable
- Decrease of CLint in DSS rats compared with CON rats ([7]; p=0.0679): 39.1%
- Concentrations in stomach, small intestine and mesentery, DSS versus CON rats [9]: significantly higher
- Plasma concentration, DSS versus CON group [9]: significantly higher
- Distribution in rat tissues ([9]; both groups): widely distributed
- AUC (in vivo; CON rats (n=6)): 2650 ng·h/mL
- AUC (in vivo; DSS rats (n=6)): 4920 ng·h/mL
- CL renal (in vivo; CON rats): 5.47 ± 4.05 mL/min/kg
- CL renal (in vivo; DSS rats): 1.97 ± 1.14 mL/min/kg
- Cmax (in vivo; CON rats): 2360 ± 587 ng/mL
- Cmax (in vivo; DSS rats): 2460 ± 1050 ng/mL
- Tmax (in vivo; CON rats): 19.2 min
- Tmax (in vivo; DSS rats): 25 min
Compound: C[C@@H]1CCN(C(=O)CC#N)C[C@@H]1N(C)c1ncnc2[nH]ccc12 [tofacitinib, Tofacitinib]
- Concentration dependence of binding to 4% human serum albumin (4% human serum albumin): independent of tofacitinib concentrations
- Fraction metabolized by hepatic CYP3A4 and CYP2C19 [3]: approximately 70%
- GI24 h ([4]; CON rats): 0.124 % of dose and 0.124 ± 0.141 % of dose
- GI24 h ([4]; DSS rats): 1.10 % of dose and 1.10 ± 0.782 % of dose
- P-gp substrate status (P-gp): substrate of P-gp
- GI24 h ([5]; intravenous, both CON and DSS rats): less than 0.484 % of the intravenous dose
- F [8]: 29.1%

- Decrease in protein expression of CYP2C11 (CYP2C11; intestine of DSS rats): 78.5%
- Decrease in protein expression of CYP2C11 (CYP2C11; liver of DSS rats): 43.3%
- Decrease in protein expression of CYP3A1/2 (CYP3A1/2; intestine of DSS rats): 99.3%
- Decrease in protein expression of CYP3A1/2 (CYP3A1/2; liver of DSS rats): 80.1%
Compound: dextran sulfate sodium [DSS]
- Decrease in colon length compared to CON rats (rats; 5% DSS (w/v) in drinking water for 10 days): 49.0%
- Body weight decrease (rats; 5% DSS (w/v) in drinking water for 10 days, DSS rats): 1.14%
- CLCR (rats; DSS rats): 2.68 mL/min/kg
- Decrease of plasma albumin (rats; DSS rats versus CON rats): 15.8%
- Increase of urea nitrogen (rats; DSS rats versus CON rats): 86.4%
